Laboratory results taken from patent publication US11882828B2, “Mosquito vector control compositions, methods and products utilizing same” (priority 2015, dated 2024).
Like-named read-outs stand apart in the source and are kept apart here.

Key:
[1] = tested on: Aedes aegypti (Yellow fever mosquito); experiment: whole plant or invertebrate; conditions: Aedes aegypti; for pest or weed control at 20 ppm: 1 h, read-out: Knockdown; for mortality at 20 ppm: 48 h
Experimental: […] Once the deposits were dry, five non-blood fed adult female Aedes aegypti (between two to five days old) were added to each well, and sustained with a 10% sucrose solution in a cotton wool plug. Assessment of the knockdown after 1 hour, and mortality after 48 hours was carried out.
(§1) In case of multiple tests, the mean value is reported.

[2] = tested on: Anopheles stephensi (Indian malaria mosquito); experiment: whole plant or invertebrate; conditions: Anopheles stephensi; for pest or weed control at 20 ppm: 1 h, read-out: Knockdown; for mortality at 20 ppm: 48 h
Experimental: […] Once the deposits were dry, five non-blood fed adult female Anopheles stephensi (between two to five days old) were added to each well, and sustained with a 10% sucrose solution in a cotton wool plug. Assessment of the knockdown after 1 hour, and mortality after 48 hours was carried out.
as §1

Aedes aegypti [3] = experiment: whole plant or invertebrate; conditions: Aedes aegypti, 48 h
Experimental: (§2) The individual wells of six (6) well tissue culture plates were treated with 250 μl of an ethanol solution containing a test compound at a defined concentration. Once the deposits were dry, ten non-blood fed adult female Aedes aegypti or Anopheles stephensi (each between two to five day old) were added to each well, and sustained with a 10% sucrose solution in a cotton wool plug.
(§3) Assessment of the mortality was carried out at 48 hours.
(§4) Each treatment was replicated twice, with the mean mortality recorded.

Anopheles stephensi [4] = experiment: whole plant or invertebrate; conditions: Anopheles stephensi, 48 h
Experimental: as §2, §3, §4

An. Gambiae Kisumu sus = experiment: Example B5: bottle based cross resistance study (CDC bottle assay); format: in vivo; conditions: Anopheles gambiae, 24 h
Experimental: (§5) Based on the “CDC bottle assay” (described at http://www.cdc.gov/malaria/resources/pdf/fsp/ir_manual/ir_cdc_bioassay_en.pdf) 1 ml of ethanol containing a test compound at a defined concentration was added to a 250 ml glass bottle and the bottles were placed on a rolling table to coat the inner surfaces as the solvent evaporated. Once dry, twenty five non-blood fed adult female mosquitoes of the appropriate species and strains (each three day old) were aspirated from the stock culture and gently blown into the exposure bottles. The lid of the bottle was replaced and the bottle placed upright out of direct sun light under standard culture conditions, nominally 28C and 60-80% relative humidity.
(§6) A stopwatch was started, and the assessment of the knock-down were made after 15 minutes and 60 minutes. A mosquito was said to be knocked down if it was unable to stand, following the CDC definition. The bottles were replaced in an upright position when not being assessed.
(§7) After one hour the mosquitoes were carefully removed from the bottle with an aspirator and placed in a recovery cup. The mosquitoes were supplied with a 10% sucrose solution on a cotton wool bung, and stored under culture conditions. Assessments of the mortality were made after 24 hours.
(§8) Each treatment was replicated a minimum of four times, with the mean knockdown or mortality recorded. In each study, a set of bottles was infested with a known insecticide susceptible strain of mosquitoes from the same genera as the resistant strains.

FUMOZ = experiment: as above; format: in vivo; conditions: Anopheles funestus, 24 h
Experimental: as §5, §6, §7, §8

VK7 = experiment: as above; format: in vivo; conditions: Anopheles coluzzii, Table B5b, after 24 hours
Experimental: as §5, §6, §7, §8

Aedes aegypti [5] = experiment: Example B7: evaluation of insecticide impregnated polymer surfaces; format: in vivo; conditions: AI content 2 wt %; for mortality: 24 hours after exposure; for knock-down: after one hour
Excerpt: (§9) Preparation of polymeric sheets: Certain methoxyacrylate were Impregnated into three polymers: LDPE (low density polyethylene), HDPE (high density polyethylene) and PP (polypropylene) in different concentrations by mixing the respective polymer with a compound at high temperatures and the resultant polymeric material were then mould into thin discs or plaques.
(§10) Twenty four hours prior to the relevant assessment intervals, three to five day old non-blood fed adult mosquitoes were taken from the culture and lightly anaesthetised with carbon dioxide. Ten females were selected and placed in a 250 ml plastic cup, retained with a net lid, provided with a 10% sucrose solution soaked in a cotton wool bung and held under culturing environmental conditions.
(§11) After twenty four hours, impregnated polymer sheets (measuring about 150 mm in diameter and about 0.1 mm in thickness) were removed from storage and wrapped around the glazed side of an 11 cm ceramic tile and held in place with an elastic band. A cup of the pre-selected mosquitoes were again lightly anaesthetised with carbon dioxide and transferred from the holding cup to the base of a 9 cm plastic Petri dish. The relevant impregnated polymer sheet was placed over the Petri dish and held in place with an elastic band. Once the mosquitoes had recovered from the anaesthetic, ca. 1 minute, the impregnated polymer sheet was placed on a holding rack, such that treated side was at an angle of […] to the horizontal.
(§12) After one hour an assessment of mosquito knockdown was made. A mosquito was said to be knocked down if it was unable to right itself once it had fallen over. The mosquitoes were lightly anaesthetised again, and removed from the Petri dish exposure chamber and returned to the holding cups. The mosquitoes were supplied with a 10% sucrose solution soaked in a cotton wool bung and held under culturing environmental conditions. An assessment of mortality was made 24 hours after exposure. A mosquito was said to be dead if it is unable to right itself once it had fallen over.

Anopheles stephensi [6] = experiment: as above; format: in vivo; conditions: AI content 2 wt %; for mortality: 24 hours after exposure; for knock-down: after one hour
Excerpt: as §9, §10, §11, §12

[7] = HDPE, polymer 8 to 12 weeks old
[8] = LDPE, polymer 8 to 12 weeks old

CO/C=C(/C(=O)OC)c1ccccc1Oc1ncc(C(F)(F)F)s1 [Compound 13, Methyl (E)-3-methoxy-2-[2-[5-(trifluoromethyl)thiazol-2-yl]oxyphenyl]prop-2-enoate]
pest or weed control at 20 ppm [1]: 100% | mortality at 20 ppm [1]: 100% | pest or weed control at 20 ppm [2]: 100% | mortality at 20 ppm [2]: 100% | mortality at 5 ppm (Aedes aegypti [3]): 78% | mortality at 5 ppm (Anopheles stephensi [4]): 100% | mortality at 25 ppm (An. Gambiae Kisumu sus; Table B5b, 25 ppm, after 24 hours, Kisumu sus): 94% | mortality at 25 ppm (FUMOZ; Table B5b, 25 ppm, after 24 hours, FUMOZ): 70% | mortality at 25 ppm (VK7; 24 h): 61% | mortality (Aedes aegypti [5]; HDPE, polymer 2 to 4 weeks old): 73% | knock-down (Aedes aegypti [5]; HDPE, polymer 2 to 4 weeks old): 100% | mortality (Aedes aegypti [5]; HDPE, polymer 6 to 8 weeks old): 65% | knock-down (Aedes aegypti [5]; HDPE, polymer 6 to 8 weeks old): 100% | mortality (Aedes aegypti [5]; LDPE, polymer 2 to 4 weeks old): 93% | knock-down (Aedes aegypti [5]; LDPE, polymer 2 to 4 weeks old): 100% | mortality (Aedes aegypti [5]; LDPE, polymer 6 to 8 weeks old): 95% | knock-down (Aedes aegypti [5]; LDPE, polymer 6 to 8 weeks old): 100% | mortality (Aedes aegypti [5]; PP, polymer 2 to 4 weeks old): 87% | knock-down (Aedes aegypti [5]; PP, polymer 2 to 4 weeks old): 100% | mortality (Aedes aegypti [5]; PP, polymer 6 to 8 weeks old): 35% | knock-down (Aedes aegypti [5]; PP, polymer 6 to 8 weeks old): 100% | mortality (Anopheles stephensi [6]; HDPE, polymer 2 to 4 weeks old): 100% | knock-down (Anopheles stephensi [6]; HDPE, polymer 2 to 4 weeks old): 100% | mortality (Anopheles stephensi [6]; [7]): 0% | knock-down (Anopheles stephensi [6]; [7]): 90% | mortality (Anopheles stephensi [6]; LDPE, polymer 2 to 4 weeks old): 100% | knock-down (Anopheles stephensi [6]; LDPE, polymer 2 to 4 weeks old): 100% | mortality (Anopheles stephensi [6]; [8]): 80% | knock-down (Anopheles stephensi [6]; [8]): 100% | mortality (Anopheles stephensi [6]; PP, polymer 2 to 4 weeks old): 100% | knock-down (Anopheles stephensi [6]; PP, polymer 2 to 4 weeks old): 100% | mortality (Anopheles stephensi [6]; PP, polymer 8 to 12 weeks old): 10% | knock-down (Anopheles stephensi [6]; PP, polymer 8 to 12 weeks old): 100%

CO/C=C(/C(=O)OC)c1ccccc1CO/N=C(\C)OC [Compound 22]
pest or weed control at 20 ppm [1]: 100% | mortality at 20 ppm [1]: 100% | pest or weed control at 20 ppm [2]: 100% | mortality at 20 ppm [2]: 100% | mortality at 5 ppm (Aedes aegypti [3]): 100% | mortality at 5 ppm (Anopheles stephensi [4]): 100% | mortality at 25 ppm (An. Gambiae Kisumu sus): 100% | mortality at 25 ppm (FUMOZ): 68% | mortality at 25 ppm (VK7; read-out: Mortality): 96% | knock-down (Aedes aegypti [5]; HDPE, polymer 2 to 4 weeks old): 93% | knock-down (Aedes aegypti [5]; HDPE, polymer 6 to 8 weeks old): 95% | knock-down (Aedes aegypti [5]; LDPE, polymer 2 to 4 weeks old): 100% | knock-down (Aedes aegypti [5]; LDPE, polymer 6 to 8 weeks old): 100% | knock-down (Aedes aegypti [5]; PP, polymer 2 to 4 weeks old): 100% | knock-down (Aedes aegypti [5]; PP, polymer 6 to 8 weeks old): 100% | knock-down (Anopheles stephensi [6]; HDPE, polymer 2 to 4 weeks old): 100% | knock-down (Anopheles stephensi [6]; [7]): 90% | knock-down (Anopheles stephensi [6]; LDPE, polymer 2 to 4 weeks old): 100% | knock-down (Anopheles stephensi [6]; [8]): 80% | knock-down (Anopheles stephensi [6]; PP, polymer 2 to 4 weeks old): 100% | knock-down (Anopheles stephensi [6]; PP, polymer 8 to 12 weeks old): 100%
